Values joined by “and” are separate entries in the source; they are usually repeats but may differ in a detail not shown here. Equal entries are not always repeated.
Key:
Format in all cases: physicochemical
[1] = Dynamic solubility at 37 °C (HPLC; residual solid by XRPD); settings: for solubility at 1 h / solubility at 2 h / solubility at 4 h / solubility at 24 h: thermodynamic from solid
Experimental: Samples of the crystal form A and the crystal form B of ethoximod were taken and prepared into saturated solutions at 37 °C in Fasted State Simulated Intestinal Fluid (FaSSIF, pH = 8.0), Fed State Simulated Intestinal Fluid (FeSSIF, pH = 5.0), Simulated Gastric Fluid (SGF, pH = 1.0), a hydrochloric acid aqueous solution (pH = 1.0), an acetic acid-sodium acetate buffer system (pH = 4.0), a phosphate buffer system (pH = 6.8) and water. After 1 h/2 h/4 h/24 h, filtration was performed to obtain solutions, and actual concentrations of the samples in the solutions were measured through high-performance liquid chromatography (HPLC) (diluting the filtrates as needed). Crystal forms of the solids before and after the experiment were characterized through XRPD to check whether phase transition had occurred. Table 4 Comparison of solubility of crystal form A and crystal form B

[2] = Equilibrium solubility in organic solvents at room temperature (HPLC; solid by XRPD); settings: equilibrium for 24 h; for solubility at 24 h: organic solvent or mixture, thermodynamic from solid
Experimental: The crystal form A and the crystal form B of ethoximod were prepared into solutions at room temperature with ethanol, acetone and ethyl acetate. After equilibrium for 24 h, filtration was performed to obtain saturated solutions, and contents of the samples in the saturated solutions were measured through high-performance liquid chromatography (HPLC) (diluting the filtrates as needed). Crystal forms of the solids before and after the experiment were characterized through XRPD to check whether phase transition had occurred.

[3] = Mechanical stability: grinding, XRPD before and after; settings: ground with an agate mortar for 5 min; hydrochloride
Experimental: 50 mg crystal form A of ethoximod and 50 mg crystal form B of ethoximod were weighed and ground clockwise with an agate mortar for 5 min, and the samples before and after the grinding were subjected to an XRPD test.

[4] = Angle of repose test (flowability); settings: hydrochloride
Experimental: Powder properties of active pharmaceutical ingredients affect the flowability of the active pharmaceutical ingredients. The crystal form A and the crystal form B of ethoximod was subjected to angle of repose and Hausner ratio tests to compare the flowability of the crystal form A and the crystal form B of ethoximod. […] In this experiment, angles of repose of active pharmaceutical ingredients of the two crystal forms were measured through an injection method in combination with a residual cone method, and the flowability of the active pharmaceutical ingredients of the two crystal forms was analyzed. Specific operations are as follows: powders were injected into a center of a disc with a limited diameter, the injection was stopped until materials on an oblique side of a powder accumulation layer automatically flew out along an edge of the disc, a height (H) of a cone was measured, and the angle of repose was calculated according to the diameter (D = 2r) of the disc with tanQ = H/r.

[5] = Bulk density and tap density test, Hausner ratio and compressibility; settings: hydrochloride
Experimental: In this experiment, the measurement was performed by using a tap instrument according to a fixed volume method. Specific operations are as follows: the weighed powders were loaded into a 50 mL graduated cylinder, and the graduated cylinder was fixed on a support; the tap instrument was set to vibrate 55±5 times per minute for 6-8 min; a change in a volume of the powders in the measuring cup was measured. A ratio of a mass of the powders to a volume (50 mL) of the materials before the tap is the bulk density of the powders, and a ratio of the mass of the powders to a volume of the materials after the tap is the tap density of the powders. Methods for converting Hausner ratio and compressibility are as follows, and the description of Hausner ratio and flowability is shown in Table 8: Table 6 Physical properties of crystal form A and crystal form B

[6] = Adhesion test in ziplock bag; settings: ziplock bag flipped at 5 rpm, 10 min in each direction; hydrochloride
Experimental: Each of the crystal form A and the crystal form B of ethoximod was taken and put into a ziplock bag with a fixed size. A seal was sealed, and the ziplock bag was flipped at a rotation speed of 5 rpm for 10 min. A direction was changed, and the ziplock bag continued to be flipped at a fixed rotation speed for 10 min. Raw materials were poured out from the bag, a mass of the remaining raw materials was weighed accurately, and an adhesion rate was calculated.

[7] = Compressibility: tableting evaluation; settings: punch die with a diameter of 6 mm, hydrochloride
Experimental: The crystal form A and the crystal form B of ethoximod were taken for preparation tableting evaluation. In this experiment, samples were subjected to tableting under the same pressure by using a punch die with a diameter of 6 mm, radial crushing forces F, diameters D and thicknesses L of the tablets were measured after the elastic recovery of the tablets, and the tensile strength of the tablets was calculated according to the following formula: tensile strength Ts = 2F/ΠDL.

[8] = Microscopic morphology and particle size; settings: optical microscope, 40× objective lens; hydrochloride
Excerpt: Samples of the crystal form A and the crystal form B of ethoximod were subjected to microscopic morphological researches. The morphology and particle sizes of the crystal form A and the crystal form B were observed under a 40× objective lens of an optical microscope. The crystal form A is irregular and plate-shaped with a raw material particle size of below 35 µm and a long/short diameter ratio of 1 to 2. The crystal form B aggregates and becomes spherical with a raw material particle size of below 20 µm.

CCc1nc(-c2ccc(-c3ccc(CCC(N)(CO)CO)cc3)cc2)co1.Cl [crystal form A, 2-amino-2-{2-(4'-(2-ethyloxazol-4-yl)-[1,1'-biphenyl]-4-yl)ethyl}-1,3-propylene glycol hydrochloride]
crystal form of the solid ([1]; FaSSIF (pH = 8.0), 37 °C, 1 h, hydrochloride): A+free alkali | crystal form of the solid ([1]; FaSSIF (pH = 8.0), 37 °C, 2 h, hydrochloride): A+free alkali | crystal form of the solid ([1]; FaSSIF (pH = 8.0), 37 °C, 4 h, hydrochloride): A+free alkali | crystal form of the solid ([1]; FaSSIF (pH = 8.0), 37 °C, 24 h, hydrochloride): A+free alkali | solubility at 1 h ([1]; Fasted State Simulated Intestinal Fluid (FaSSIF), 37 °C, pH 8, fassif, FaSSIF (pH = 8.0), 1 h): 10 µg/mL | solubility at 2 h ([1]; Fasted State Simulated Intestinal Fluid (FaSSIF), 37 °C, pH 8, fassif, FaSSIF (pH = 8.0), 2 h): 9 µg/mL | solubility at 4 h ([1]; Fasted State Simulated Intestinal Fluid (FaSSIF), 37 °C, pH 8, fassif, FaSSIF (pH = 8.0), 4 h): 11 µg/mL | solubility at 24 h ([1]; Fasted State Simulated Intestinal Fluid (FaSSIF), 37 °C, pH 8, fassif, FaSSIF (pH = 8.0), 24 h): 26 µg/mL | solubility ([1]; FeSSIF (pH = 5.0), 37 °C, 4 h, hydrochloride): 2520 µg/mL | solubility at 1 h ([1]; Fed State Simulated Intestinal Fluid (FeSSIF), 37 °C, pH 5, fessif, FeSSIF (pH = 5.0), 1 h): 1540 µg/mL | solubility at 2 h ([1]; Fed State Simulated Intestinal Fluid (FeSSIF), 37 °C, pH 5, fessif, FeSSIF (pH = 5.0), 2 h): 2000 µg/mL | solubility at 24 h ([1]; Fed State Simulated Intestinal Fluid (FeSSIF), 37 °C, pH 5, fessif, FeSSIF (pH = 5.0), 24 h): 2670 µg/mL | solubility at 1 h ([1]; Simulated Gastric Fluid (SGF), 37 °C, pH 1, simulated gastric fluid, SGF (pH = 1.0), 1 h): 240 µg/mL | solubility at 2 h ([1]; Simulated Gastric Fluid (SGF), 37 °C, pH 1, simulated gastric fluid, SGF (pH = 1.0), 2 h): 260 µg/mL | solubility at 4 h ([1]; Simulated Gastric Fluid (SGF), 37 °C, pH 1, simulated gastric fluid, SGF (pH = 1.0), 4 h): 260 µg/mL | solubility at 24 h ([1]; Simulated Gastric Fluid (SGF), 37 °C, pH 1, simulated gastric fluid, SGF (pH = 1.0), 24 h): 270 µg/mL | solubility at 1 h ([1]; acetic acid-sodium acetate buffer, 37 °C, pH 4, aqueous buffer, acetic acid-sodium acetate buffer pH = 4.0, 37 °C, 1 h): 2490 µg/mL | solubility at 2 h ([1]; acetic acid-sodium acetate buffer, 37 °C, pH 4, aqueous buffer, acetic acid-sodium acetate buffer pH = 4.0, 37 °C, 2 h): 2480 µg/mL | solubility at 4 h ([1]; acetic acid-sodium acetate buffer, 37 °C, pH 4, aqueous buffer, acetic acid-sodium acetate buffer pH = 4.0, 37 °C, 4 h): 2740 µg/mL | solubility at 24 h ([1]; acetic acid-sodium acetate buffer, 37 °C, pH 4, aqueous buffer, acetic acid-sodium acetate buffer pH = 4.0, 37 °C, 24 h): 2590 µg/mL | solubility at 1 h ([1]; hydrochloric acid aqueous solution, 37 °C, pH 1, simulated gastric fluid, hydrochloric acid aqueous solution pH = 1.0, 37 °C, 1 h): 280 µg/mL | solubility at 2 h ([1]; hydrochloric acid aqueous solution, 37 °C, pH 1, simulated gastric fluid, hydrochloric acid aqueous solution pH = 1.0, 37 °C, 2 h): 280 µg/mL | solubility at 4 h ([1]; hydrochloric acid aqueous solution, 37 °C, pH 1, simulated gastric fluid, hydrochloric acid aqueous solution pH = 1.0, 37 °C, 4 h): 290 µg/mL | solubility at 24 h ([1]; hydrochloric acid aqueous solution, 37 °C, pH 1, simulated gastric fluid, hydrochloric acid aqueous solution pH = 1.0, 37 °C, 24 h): 380 µg/mL | crystal form of the solid ([1]; phosphate buffer pH = 6.8, 37 °C, 1 h): free alkali | solubility ([1]; phosphate buffer pH = 6.8, 37 °C, 1 h, hydrochloride): 0.2 µg/mL | crystal form of the solid ([1]; phosphate buffer pH = 6.8, 37 °C, 2 h): free alkali | crystal form of the solid ([1]; phosphate buffer pH = 6.8, 37 °C, 4 h): free alkali | crystal form of the solid ([1]; phosphate buffer pH = 6.8, 37 °C, 24 h): free alkali | solubility ([1]; phosphate buffer pH = 6.8, 37 °C, 24 h, hydrochloride): 0.76 µg/mL | solubility at 2 h ([1]; phosphate buffer, 37 °C, pH 6.8, aqueous buffer, phosphate buffer pH = 6.8, 37 °C, 2 h): 0.07 µg/mL | solubility at 4 h ([1]; phosphate buffer, 37 °C, pH 6.8, aqueous buffer, phosphate buffer pH = 6.8, 37 °C, 4 h): 0.14 µg/mL | solubility at 1 h ([1]; water, 37 °C, 1 h): 2080 µg/mL | solubility at 2 h ([1]; water, 37 °C, 2 h): 2150 µg/mL | solubility at 4 h ([1]; water, 37 °C, 4 h): 2140 µg/mL | solubility at 24 h ([1]; water, 37 °C, 24 h): 2260 µg/mL | solubility at 24 h ([2]; acetone): 30 µg/mL | solubility at 24 h ([2]; ethanol): 3470 µg/mL | solubility ([2]; ethyl acetate, hydrochloride): 40 µg/mL | crystal form after grinding (XRPD) [3]: remains unchanged | Average of Angles of Repose [4]: 57.2 ° | Angle of Repose ([4]; single determination): 56.3 ° and 58.0 ° | Compressibility ([5]; (tap density - bulk density)/tap density): 54.0 | Bulk Density [5]: 0.2578 g/mL | Tap Density [5]: 0.5604 g/mL | Hausner Ratio ([5]; tap density/bulk density): 2.2 | Adhesion Amount Per Unit Area [6]: 0.002 g/m^2 | Weight of API Adsorbed in Bag [6]: 0.1053 g | Radial Crushing Force F (Hardness/N) ([7]; tablet): 5 N and 3 N | Experimental Phenomenon ([7]; tableting): slight sticking | raw material particle size [8]: below 35 µm

Reference: EP4640674A1, “CRYSTAL FORMS OF ETHOXIMOD, PREPARATION METHOD THEREFOR AND USE THEREOF” (Jiankuan (Suzhou) Biotechnology Co., Ltd, priority 2022, dated 2024)
